Measurements as given in patent US20120029018A1, “9-SUBSTITUTED PHENANTHRENE BASED TYLOPHORINE DERIVATIVES” (priority 2008, published 2012).
≈ marks a conversion by molar mass, not a printed value. Where “and” joins values, the source holds several entries; their conditions need not be identical. Identical values can stand only once.

Columns and labels:
A549 (lung) = experiment: In vitro anticancer activity against A549 cells; assay type: cell-based, human; details: for IC50 A549: A549 cells
[1] = test system: KB-VIN (an MDR KB subline); experiment: In vitro anticancer activity against KB-VIN cells; assay type: cell-based, human; details: for IC50 KBvin: KBvin cells
DU-145 (prostate) = experiment: In vitro anticancer activity against DU-145 cells; assay type: cell-based, human; details: for IC50 DU145: DU145 cells
KB (nasopharyngeal) = experiment: In vitro anticancer activity against KB cells; assay type: cell-based, human; details: for IC50 KB: KB cells
[2] = test system: panel of human tumor cell lines including KB, A549, DU-145 and KB-VIN; experiment: In vitro anticancer activity, panel as a whole; assay type: cell-based; details: for IC50 values across the panel: summary of Table 1
[3] = test system: Akt activation, RelA (p65), NF-κB target genes; experiment: Akt / NF-κB signaling (gels, FIG. 2); assay type: cell-based
Text: (§1) The reciprocal recruitment of RelA and RelB on COX-2 promoter region led to the downregulation of transcriptional activity. […] PBT-1 may be a good drug candidate for anticancer chemotherapy.

[4] = test system: apoptosis pathway, MAPK signaling, NF-κB pathway, focal adhesion; experiment: DNA microarray and pathway analysis; assay type: cell-based
Text: as §1

[5] = test system: panel of human tumor cell lines including KB, A549, DU-145 and KB-VIN; details: four human cancer cell lines including MDR KB-VIN; previous research (refs 6,7); read-out: IC50 against four types of human cancer cell lines; cited from earlier work
CL1-0 = experiment: Cell cycle distribution in CL1-0 cells; assay type: cell-based
Text: as §1

lung cancer cells = experiment: Colony formation of lung cancer cells in vitro; assay type: cell-based; details: FIG. 1, listed as PBT-1
Text: as §1

[6] = test system: cyclin B1 and cyclin D1 protein; experiment: Cyclin protein levels; assay type: cell-based
Text: as §1

COC(=O)C1CN(Cc2cc3cc4c(cc3c3cc(OC)ccc23)OCO4)CCC1=O (racemic) [Compound 16]
IC50 A549 (A549 (lung)): 0.58 µg/mL (≈ 1.38 µM) | IC50 KBvin [1]: 0.83 µg/mL (≈ 1.97 µM) | IC50 DU145 (DU-145 (prostate)): 0.78 µg/mL (≈ 1.85 µM) | IC50 KB (KB (nasopharyngeal)): 0.53 µg/mL (≈ 1.26 µM)

COc1ccc2c(CN3CCC(C(F)(F)F)CC3)cc3cc4c(cc3c2c1)OCO4 [Compound 13]
IC50 A549 (A549 (lung)): 2.74 µg/mL (≈ 6.56 µM) | IC50 KBvin [1]: 3.12 µg/mL (≈ 7.47 µM) | IC50 DU145 (DU-145 (prostate)): 5.24 µg/mL (≈ 12.6 µM) | IC50 KB (KB (nasopharyngeal)): 3.88 µg/mL (≈ 9.3 µM)

COc1ccc2c(CN3CCC(=O)CC3)cc3cc4c(cc3c2c1)OCO4 [Compound 15]
IC50 A549 (A549 (lung)): 0.04 µg/mL (≈ 0.11 µM) | IC50 KBvin [1]: 0.05 µg/mL (≈ 0.138 µM) | IC50 values across the panel [2]: ~0.04 µg/mL (≈ 0.11 µM) | IC50 DU145 (DU-145 (prostate)): 0.04 µg/mL (≈ 0.11 µM) | IC50 KB (KB (nasopharyngeal)): 0.04 µg/mL (≈ 0.11 µM)

COc1ccc2c(CN3CCC(CN)CC3)cc3cc4c(cc3c2c1)OCO4.Cl.Cl [Compound 20]
IC50 A549 (A549 (lung)): 0.22 µg/mL | IC50 DU145 (DU-145 (prostate)): 0.16 µg/mL | IC50 KB (KB (nasopharyngeal)): 0.12 µg/mL

COC(=O)C1CCCN(Cc2cc3cc4c(cc3c3cc(OC)ccc23)OCO4)C1 (stereo not drawn) [Compound 18]
IC50 A549 (A549 (lung)): 0.76 µg/mL (≈ 1.87 µM) | IC50 KBvin [1]: 1.24 µg/mL (≈ 3.04 µM) | IC50 DU145 (DU-145 (prostate)): 1.09 µg/mL (≈ 2.68 µM) | IC50 KB (KB (nasopharyngeal)): 0.79 µg/mL (≈ 1.94 µM)

COc1ccc2c(CN3CCCC(CO)C3)cc3cc4c(cc3c2c1)OCO4 (stereo not drawn) [Compound 23]
IC50 A549 (A549 (lung)): 0.05 µg/mL (≈ 0.132 µM) | IC50 DU145 (DU-145 (prostate)): 0.06 µg/mL (≈ 0.158 µM) | IC50 KB (KB (nasopharyngeal)): 0.07 µg/mL (≈ 0.184 µM)

COc1ccc2c(CN3CCC(C#N)CC3)cc3cc4c(cc3c2c1)OCO4 [Compound 14]
IC50 A549 (A549 (lung)): 0.33 µg/mL (≈ 0.881 µM) | IC50 KBvin [1]: 0.43 µg/mL (≈ 1.15 µM) | IC50 DU145 (DU-145 (prostate)): 0.41 µg/mL (≈ 1.09 µM) | IC50 KB (KB (nasopharyngeal)): 0.42 µg/mL (≈ 1.12 µM)

COc1ccc2c(CN3CCC(N)CC3)cc3cc4c(cc3c2c1)OCO4.Cl.Cl [Compound 12]
IC50 A549 (A549 (lung)): 0.16 µg/mL | IC50 KBvin [1]: 0.29 µg/mL | IC50 DU145 (DU-145 (prostate)): 0.34 µg/mL | IC50 KB (KB (nasopharyngeal)): 0.24 µg/mL

COC(=O)C1CCCN(Cc2cc3cc4c(cc3c3cc(OC)ccc23)OCO4)C1 (stereo not drawn) [Compound 19]
IC50 A549 (A549 (lung)): 0.53 µg/mL (≈ 1.3 µM) | IC50 KBvin [1]: 0.58 µg/mL (≈ 1.42 µM) | IC50 DU145 (DU-145 (prostate)): 0.61 µg/mL (≈ 1.5 µM) | IC50 KB (KB (nasopharyngeal)): 0.53 µg/mL (≈ 1.3 µM)

COc1ccc2c(CN3CCCC(N)C3)cc3cc4c(cc3c2c1)OCO4.Cl.Cl (stereo not drawn) [Compound 10]
IC50 A549 (A549 (lung)): 3.85 µg/mL | IC50 KBvin [1]: 3.88 µg/mL | IC50 DU145 (DU-145 (prostate)): 4.20 µg/mL | IC50 KB (KB (nasopharyngeal)): 3.80 µg/mL

COc1ccc2c(CN3CCCC(CO)C3)cc3cc4c(cc3c2c1)OCO4 (stereo not drawn) [Compound 24]
IC50 A549 (A549 (lung)): 0.07 µg/mL (≈ 0.184 µM) | IC50 DU145 (DU-145 (prostate)): 0.10 µg/mL (≈ 0.264 µM) | IC50 KB (KB (nasopharyngeal)): 0.07 µg/mL (≈ 0.184 µM)

COc1ccc2c(CN3CCC(CNC(=O)OC(C)(C)C)CC3)cc3cc4c(cc3c2c1)OCO4 [Compound 25]
IC50 A549 (A549 (lung)): 0.27 µg/mL (≈ 0.564 µM) | IC50 DU145 (DU-145 (prostate)): 0.40 µg/mL (≈ 0.836 µM) | IC50 KB (KB (nasopharyngeal)): 0.43 µg/mL (≈ 0.898 µM)

COc1ccc2c(CN3CCCC(CNC(=O)OC(C)(C)C)C3)cc3cc4c(cc3c2c1)OCO4 (racemic) [Compound 8]
IC50 A549 (A549 (lung)): 0.57 µg/mL (≈ 1.19 µM) | IC50 KBvin [1]: 0.62 µg/mL (≈ 1.3 µM) | IC50 DU145 (DU-145 (prostate)): 0.52 µg/mL (≈ 1.09 µM) | IC50 KB (KB (nasopharyngeal)): 0.53 µg/mL (≈ 1.11 µM)

COc1ccc2c(CN3CCCC(CN)C3)cc3cc4c(cc3c2c1)OCO4.Cl.Cl (racemic) [Compound 7]
IC50 A549 (A549 (lung)): 0.28 µg/mL | IC50 KBvin [1]: 0.38 µg/mL | IC50 DU145 (DU-145 (prostate)): 0.37 µg/mL | IC50 KB (KB (nasopharyngeal)): 0.33 µg/mL

COc1ccc2c(CN3CCC(NC(=O)OC(C)(C)C)CC3)cc3cc4c(cc3c2c1)OCO4 [Compound 11]
IC50 A549 (A549 (lung)): 0.41 µg/mL (≈ 0.883 µM) | IC50 KBvin [1]: 0.49 µg/mL (≈ 1.05 µM) | IC50 DU145 (DU-145 (prostate)): 0.43 µg/mL (≈ 0.926 µM) | IC50 KB (KB (nasopharyngeal)): 0.40 µg/mL (≈ 0.861 µM)

COc1ccc2c(CN3CCC(O)CC3)cc3cc4c(cc3c2c1)OCO4 [Compound 21]
IC50 A549 (A549 (lung)): 0.03 µg/mL (≈ 0.0821 µM) | IC50 values across the panel [2]: ~0.04 µg/mL and 0.03 to 0.04 µg/mL | fold more active compared with compound 1 ([2]; vs compound 1): about 2 fold | IC50 DU145 (DU-145 (prostate)): 0.04 µg/mL (≈ 0.109 µM) | IC50 KB (KB (nasopharyngeal)): 0.03 µg/mL (≈ 0.0821 µM)

COc1ccc2c(CN3CCCC(NC(=O)OC(C)(C)C)C3)cc3cc4c(cc3c2c1)OCO4 (stereo not drawn) [Compound 9]
IC50 A549 (A549 (lung)): 6.77 µg/mL (≈ 14.6 µM) | IC50 KBvin [1]: 8.40 µg/mL (≈ 18.1 µM) | IC50 DU145 (DU-145 (prostate)): 8.00 µg/mL (≈ 17.2 µM) | IC50 KB (KB (nasopharyngeal)): 6.43 µg/mL (≈ 13.8 µM)

COc1ccc2c(CN3CCC(CO)CC3)cc3cc4c(cc3c2c1)OCO4 [Compound 1]
IC50 (A549 (lung); Homo sapiens, A549, read-out: IC50 A549): 0.07 µg/mL (≈ 0.184 µM) | IC50 ([1]; Homo sapiens, KBVIN, read-out: IC50 KBvin): 0.08 µg/mL (≈ 0.211 µM) | Akt activation [3]: suppress Akt activation | expressions of NF-κB target genes [3]: downregulate the expressions of NF-κB target genes | RelA (p65) degradation ([3]; via IκB kinase-α): accelerate RelA (p65) degradation | pathways activated [4]: activated the apoptosis pathway and mitogen-activated protein kinase signaling | pathways suppressed [4]: suppressed the nuclear factor kappaB (NF-κB) pathway and focal adhesion | IC50 [5]: ~80 nM | G1 (%) (CL1-0; CL1-0, 2 Hr.): 53.7% | G2/M (%) (CL1-0; CL1-0, 2 Hr.): 25.4% | S (%) (CL1-0; CL1-0, 2 Hr.): 15.1% | G1 (%) (CL1-0; CL1-0, 6 Hr.): 52.5% | G2/M (%) (CL1-0; CL1-0, 6 Hr.): 24.3% | S (%) (CL1-0; CL1-0, 6 Hr.): 15.8% | G1 (%) (CL1-0; CL1-0, 12 Hr.): 41.7% | G2/M (%) (CL1-0; CL1-0, 12 Hr.): 27.0% | S (%) (CL1-0; CL1-0, 12 Hr.): 23.9% | G1 (%) (CL1-0; CL1-0, 16 Hr.): 20.4% | G2/M (%) (CL1-0; CL1-0, 16 Hr.): 33.6% | S (%) (CL1-0; CL1-0, 16 Hr.): 34.1% | G1 (%) (CL1-0; CL1-0, 24 Hr.): 16.6% | G2/M (%) (CL1-0; CL1-0, 24 Hr.): 20.9% | S (%) (CL1-0; CL1-0, 24 Hr.): 43.8% | cell cycle arrest and apoptosis (CL1-0; Table 2): induced cell cycle G2/M arrest and apoptosis | colony formation of lung cancer cells (lung cancer cells): significantly suppressed colony formation | IC50 (DU-145 (prostate); Homo sapiens, DU-145, read-out: IC50 DU145): 0.09 µg/mL (≈ 0.237 µM) | IC50 (KB (nasopharyngeal); Homo sapiens, KB, read-out: IC50 KB): 0.07 µg/mL (≈ 0.184 µM) | cyclin B1 and cyclin D1 protein level [6]: accumulation in dose- and time-dependent manners

COc1ccc2c(CN3CCCC(=O)C3)cc3cc4c(cc3c2c1)OCO4 [Compound 22]
IC50 A549 (A549 (lung)): 0.29 µg/mL (≈ 0.798 µM) | decrease of inhibitory potency, oxo group at C-3′ (15 vs. 22) ([2]; vs compound 15): about 8 fold | IC50 DU145 (DU-145 (prostate)): 0.39 µg/mL (≈ 1.07 µM) | IC50 KB (KB (nasopharyngeal)): 0.30 µg/mL (≈ 0.826 µM)

COc1ccc2c(CN3CCC(NS(C)(=O)=O)CC3)cc3cc4c(cc3c2c1)OCO4 [Compound 17]
IC50 A549 (A549 (lung)): 0.45 µg/mL (≈ 1.02 µM) | IC50 KBvin [1]: 0.48 µg/mL (≈ 1.08 µM) | IC50 DU145 (DU-145 (prostate)): 0.45 µg/mL (≈ 1.02 µM) | IC50 KB (KB (nasopharyngeal)): 0.29 µg/mL (≈ 0.655 µM)
